The values below come from publication PMC12040169 (PLOS Biology, 2025).

A short description of the series: in vitro. The note with it: human, hela cells.

A word on the viability: it is a read-out of living cells in per cent, often relative to untreated cells.

For `COc1ccc(C(=O)N2CCC3(CCCN(CCCn4c(=O)[nH]c5ccccc54)C3)C2)cc1OC` (stereo not drawn) [CBK132856], under “% viability”, the viability at 28.5 h, 10 µM was determined as 93.1%.

Regarding `COc1ccc(C(=O)N2CCC3(CCCN(CCN4C(=O)c5ccccc5C4=O)C3)C2)cc1OC` (stereo not drawn) [CBK132862], the viability at 28.5 h, 10 µM (% viability) stood at 98.1%.

On to `CCc1cc(NC[C@@H](O)CO)nc(-c2cc(F)c(F)c(F)c2)n1` [CBK132879], for which the viability at 28.5 h, 10 µM (% viability) is 94.2%. The same measure, in the same setting: under `CCc1cc(NC[C@@H](O)CO)nc(-c2ccc(F)c(Cl)c2)n1` [CBK132880] stands 74.4%. Still for that read-out and setting: under `Cn1c(=O)c2c(ncn2CC(=O)Nc2ccc(Cl)cc2Cl)n(C)c1=O` [CBK133227] stands 86%. The same measure, in the same setting: with `CC(C)NC(=O)Cn1cnc2c1c(=O)n(C)c(=O)n2C` [CBK133257] the figure was 86.9%; with `Cc1ccc(NC(=O)Cn2cnc3c2c(=O)n(C)c(=O)n3C)c(C)c1` [CBK133276], 90.6%. As to `Cn1c(=O)c2c(ncn2Cc2ccccc2)n(C)c1=O` [CBK133402], under “% viability”, the viability at 28.5 h, 10 µM came out at 102%. Turning to `Cc1ccc(NC(=O)Cn2cnc3c2c(=O)n(C)c(=O)n3C)nc1` [CBK133463], the viability at 28.5 h, 10 µM (% viability) amounted to 95.9%.

Regarding `Cn1c(=O)c2c(ncn2CC(=O)Nc2ccccc2C#N)n(C)c1=O` [CBK133465], under “% viability”, the viability at 28.5 h, 10 µM came out at 89.6%. The same measure, in the same setting: with `Cn1c(=O)c2c(ncn2CC(=O)Nc2cccc3ccccc23)n(C)c1=O` [CBK133515] the figure was 95.8%; with `COc1ccc(NC(=O)Cn2cnc3c2c(=O)n(C)c(=O)n3C)cc1Cl` [CBK134216], 95.9%; with `Cn1c(=O)c2c(ncn2Cc2ccc(C#N)cc2)n(C)c1=O` [CBK134217], 106%.

As to `Cc1ccc(Cn2c(OCCN(C)C)nc3c2c(=O)n(C)c(=O)n3C)cc1` [CBK134241], the viability at 28.5 h, 10 µM (% viability) was determined as 89.3%. As for `COc1ccc(CCNc2ncnc3[nH]cnc23)cc1OC` [CBK134342], the viability at 28.5 h, 10 µM (% viability) was 110%.

Turning to `CCc1ccc2[nH]c(=O)c(CN(CCN(C)C)C(=S)NCc3ccccc3)cc2c1` [CBK134905], for the setting “% viability”, the viability at 28.5 h, 10 µM amounted to 98.4%. Regarding `Cc1cccc(N=C(S)N(CCN(C)C)Cc2cc3cc(C)cc(C)c3nc2O)c1` [CBK135105], the viability at 28.5 h, 10 µM (% viability) stood at 96.2%. The same measure, in the same setting: with `CC(C)(N)C(=O)N1CC(C(=O)N2CC3(CCN(S(C)(=O)=O)CC3)c3ccccc32)C(c2cc3ccccc3o2)C1` (stereo not drawn) [CBK136734T] the figure was 117%; with `O=C(Cc1ccsc1)N1CCC2(CCN(Cc3ccccc3)CC2)C1` [CBK136742], 89.8%. As for `CSCCC(=O)N1CCC2(CCN(Cc3ccccc3)CC2)C1` [CBK136757], where the note is “% viability”, the viability at 28.5 h, 10 µM is 101%. The same measure, in the same setting: with `O=C(c1cncnc1)N1CCC2(CCN(Cc3ccccc3)CC2)C1` [CBK136782] the figure was 101%; with `Cc1cc(CC(=O)N2CCC(Cn3cncn3)(C3CCCCC3)CC2)on1` [CBK136795], 88.8%; with `O=C(Cc1nnn[nH]1)N1CCC(Cn2cncn2)(C2CCCCC2)CC1` [CBK136796], 92.2%. The same measure, in the same setting: under `COc1ccccc1OCC(=O)N1CCC(Cn2cncn2)(C2CCCCC2)CC1` [CBK136797] stands 91.9%; under `O=C1NC(=O)C(CC(=O)N2CCC(Cn3cncn3)(C3CCCCC3)CC2)N1` (stereo not drawn) [CBK136808], 94.3%. On to `O=C(O)CCC(=O)N1CCC(Cn2cncn2)(C2CCCCC2)CC1` [CBK136809], for which, for the setting “% viability”, the viability at 28.5 h, 10 µM came to 94.8%. On the same count and under the same terms, with `COC(=O)CCC(=O)N1CCC(Cn2cncn2)(C2CCCCC2)CC1` [CBK136810] the figure was 90.8%. Still for that read-out and setting: with `O=C(CC1CC1)N1CCC2(CCN(Cc3ccccc3)C2)C1` (stereo not drawn) [CBK136825] the figure was 93.9%. In the case of `CSCCC(=O)N1CCC2(CCN(Cc3ccccc3)C2)C1` (stereo not drawn) [CBK136838], the viability at 28.5 h, 10 µM (% viability) turned out to be 93.8%. Regarding `Cc1cn(CC(=O)N2CCC3(CCN(Cc4ccccc4)C3)C2)c(=O)[nH]c1=O` (stereo not drawn) [CBK136840], under “% viability”, the viability at 28.5 h, 10 µM turned out to be 91.6%. Take `COC(=O)CCC(=O)N1CCC2(CCN(Cc3ccccc3)C2)C1` (stereo not drawn) [CBK136852]: the viability at 28.5 h, 10 µM (% viability) worked out at 116%. Consider `O=C(c1ccc2nc[nH]c2c1)N1CCC2(CCN(Cc3ccccc3)C2)C1` (stereo not drawn) [CBK136862], for which the viability at 28.5 h, 10 µM (% viability) came to 94.1%.

As to `O=C(Cc1ccsc1)N1CCCC2(CCN(Cc3ccccc3)C2)C1` (stereo not drawn) [CBK136868], for the setting “% viability”, the viability at 28.5 h, 10 µM is 86.7%. The same measure, in the same setting: under `O=C(Cc1ccc(Cl)c(Cl)c1)N1CCCC2(CCN(Cc3ccccc3)C2)C1` (stereo not drawn) [CBK136872] stands 91.9%. Consider `O=C(c1ccc2occc2c1)N1CCCC2(CCN(Cc3ccccc3)C2)C1` (stereo not drawn) [CBK136882], for which the viability at 28.5 h, 10 µM (% viability) amounted to 105%. The same measure, in the same setting: with `COc1ccc2[nH]cc(CC(=O)N3CCCC4(CCN(Cc5ccccc5)C4)C3)c2c1` (stereo not drawn) [CBK136883] the figure was 93.5%.

For the molecule `O=C(c1cccc2[nH]ccc12)N1CCCC2(CCN(Cc3ccccc3)C2)C1` (stereo not drawn) [CBK136887], the viability at 28.5 h, 10 µM (% viability) stood at 93.5%. For `N#Cc1cccc(C(=O)N2CCCC3(CCN(Cc4ccccc4)C3)C2)c1` (stereo not drawn) [CBK136893], the viability at 28.5 h, 10 µM (% viability) came out at 92%. On the same count and under the same terms, under `CN1CCC[C@H]1C(=O)N1CCCC2(CCN(Cc3ccccc3)C2)C1` (stereo partly drawn) [CBK136901] stands 90.7%.

Consider `CCOC(=O)C1(C2CCCCC2)CCN(C(=O)CC2CCCCC2)CC1` [CBK136919], for which the viability at 28.5 h, 10 µM (% viability) was determined as 96.2%. Still for that read-out and setting: with `CCOC(=O)C1(C2CCCCC2)CCN(C(=O)c2ccc(OC(F)(F)F)cc2)CC1` [CBK136921] the figure was 96.2%; with `CCOC(=O)C1(C2CCCCC2)CCN(C(=O)/C=C/c2ccc3c(c2)OCO3)CC1` [CBK136924], 92.8%; with `CCOC(=O)C1(C2CCCCC2)CCN(C(=O)COc2ccccc2OC)CC1` [CBK136928], 96.7%.

With `CCOC(=O)C1(C2CCCCC2)CCN(C(=O)CC2NC(=O)NC2=O)CC1` (stereo not drawn) [CBK136938], the viability at 28.5 h, 10 µM (% viability) is 100%. For the molecule `CCOC(=O)C1(C2CCCCC2)CCN(C(=O)CCC(=O)O)CC1` [CBK136939], the viability at 28.5 h, 10 µM (% viability) was found to be 95.9%. As for `CS(=O)(=O)N1CC2(CCN(Cc3cccc4cccnc34)CC2)c2ccccc21` [CBK136955], the viability at 28.5 h, 10 µM (% viability) worked out at 93.2%. Still for that read-out and setting: under `CS(=O)(=O)N1CC2(CCN(Cc3ccc4nsnc4c3)CC2)c2ccccc21` [CBK136957] stands 92.9%. For the molecule `CCNC(=O)N1CC2(CCN(CCc3cccc4ccccc34)CC2)c2ccccc21` [CBK136965], where the note is “% viability”, the viability at 28.5 h, 10 µM turned out to be 94.7%. `CCNC(=O)N1CC2(CCN(CCCC#N)CC2)c2ccccc21` [CBK136970]: the viability at 28.5 h, 10 µM (% viability) was determined as 111%. With `CCNC(=O)N1CC2(CCN(CCOCC)CC2)c2ccccc21` [CBK136972], the viability at 28.5 h, 10 µM (% viability) amounted to 90.5%.

Consider `CC(C)C(=O)N1CC2(CCN(CCc3cccc4ccccc34)CC2)c2ccccc21` [CBK136978], for which the viability at 28.5 h, 10 µM (% viability) was determined as 101%. The same measure, in the same setting: with `CCN1CC2(CCN(Cc3c(F)cccc3F)CC2)c2ccccc21` [CBK136986] the figure was 94%; with `CCN1CC2(CCN(CC3CC3)CC2)c2ccccc21` [CBK136987], 92.6%. As to `CCN1CC2(CCN(CCCN(C)C)CC2)c2ccccc21` [CBK136988], the viability at 28.5 h, 10 µM (% viability) was found to be 84.5%.

On to `CCN1CC2(CCN(CCCC#N)CC2)c2ccccc21` [CBK136995], for which the viability at 28.5 h, 10 µM (% viability) is 91.1%. Same read-out and setting: under `NC(=O)CN1CC2(CCN(Cc3cccc4cccnc34)CC2)c2ccccc21` [CBK137021] stands 123%. Consider `O=C(c1cccc(C(F)(F)F)c1)N1CCCC2(CCN(Cc3ccccc3)C2)C1` (stereo not drawn) [CBK137039], for which the viability at 28.5 h, 10 µM (% viability) was 90.4%. The same measure, in the same setting: with `O=C(c1cc(F)c(F)cc1F)N1CCC2(CCCNC2)C1` (stereo not drawn) [CBK137068T] the figure was 87%. For the molecule `O=C(Cc1nnn[nH]1)N1CCCC2(CCN(C(=O)c3ccoc3)C2)C1` (stereo not drawn) [CBK137077], the viability at 28.5 h, 10 µM (% viability) turned out to be 91.8%. On the same count and under the same terms, under `COc1ccc(C(=O)N2CCC3(CCCN(C(=O)c4ccc5[nH]c(=O)[nH]c5c4)C3)C2)cc1OC` (stereo not drawn) [CBK137086] stands 98.5%; under `Cc1ccc(S(=O)(=O)CC(=O)N2CCCC3(CCN(Cc4ccccc4)C3)C2)cc1` (stereo not drawn) [CBK137098T], 90.7%; under `CCOC(=O)C1(C2CCCCC2)CCN(C(=O)c2cc(C)[nH]n2)CC1` [CBK137100], 96.2%. Regarding `CCOC(=O)C1(C2CCCCC2)CCN(C(=O)c2cscn2)CC1` [CBK137101], the viability at 28.5 h, 10 µM (% viability) turned out to be 82.1%. On the same count and under the same terms, with `CCOC(=O)C1(C2CCCCC2)CCN(C(=O)c2ccc(S(N)(=O)=O)cc2)CC1` [CBK137105] the figure was 93.2%; with `O=c1[nH]c2ccccc2n1CCCN1CCC[C@@H]1CN1CCCC1` [CBK137111T], 93.5%. As to `CCOC(=O)C1(c2ccccc2)CCN(C(=O)CC(C)(C)N)CC1` [CBK137117], the viability at 28.5 h, 10 µM (% viability, bulk resorufin, single well) came out at 96.6%. With `O=C(O)CCN1CCCC2(CCN(C(=O)Cc3c[nH]c4ccccc34)C2)C1` (stereo not drawn) [CBK137138], the viability at 28.5 h, 10 µM (% viability) stood at 114%. As for `COc1ccc(C(=O)N2CCC3(CCCN(CCc4c[nH]c5ccccc45)C3)C2)cc1OC` (stereo not drawn) [CBK137143], the viability at 28.5 h, 10 µM (% viability) amounted to 89.9%. Turning to `O=C(c1ccc2[nH]ccc2c1)N1CCC2(CCN(Cc3ccccc3)C2)C1` (stereo not drawn) [CBK137146], under “% viability”, the viability at 28.5 h, 10 µM came out at 98.5%.

Regarding `CN(C)C(=O)Oc1cc(CN2CCCC2)c2ccn(S(=O)(=O)c3ccccc3)c2c1` [CBK137151T], the viability at 28.5 h, 10 µM stood at 101%. In the case of `O=C(Cc1ccsc1)N1CCC2(CCCNC2)C1` (stereo not drawn) [CBK137153C], the viability at 28.5 h, 10 µM (% viability) was found to be 85.4%.

As for `O=C(CC1CCCCC1)N1CCC2(CCCNC2)C1` (stereo not drawn) [CBK137154C], the viability at 28.5 h, 10 µM (% viability) is 91.5%. On to `O=C(c1ccc(OC(F)(F)F)cc1)N1CCC2(CCCNC2)C1` (stereo not drawn) [CBK137156C], for which the viability at 28.5 h, 10 µM (% viability) stood at 87.7%. The same measure, in the same setting: under `Nc1nccn(CCOc2cc(F)c(F)cc2F)c1=O` [CBK138204T] stands 92.6%. As for `CC(=O)Nc1ccc(-c2ccc(COC3CCN(C(=O)OC(C)(C)C)CC3)cc2)cc1` [CBK138215], the viability at 28.5 h, 10 µM (% viability) was determined as 99.8%. For the molecule `CN1CCC(COC(=O)Nc2cccnc2)CC1` [CBK138232], where the note is “% viability”, the viability at 28.5 h, 10 µM stood at 108%. On the same count and under the same terms, under `Cc1cc(C)nc(NC(=O)OCCc2cccnc2)c1` [CBK138234] stands 95.1%. Still for that read-out and setting: with `Cc1cc(C)nc(NC(=O)OCCN2CCN(C)CC2)c1` [CBK138235] the figure was 92.2%.
